Source: patent US8648112B2, “Therapeutic uses of urolithins” (The Regents of the University of California, priority 2006, dated 2014)
Like-named read-outs stand apart in the source and are kept apart here.

What was measured:
[1] = test system: human pancreatic cancer cell line BXPC-3; experiment: Antiproliferative activity against pancreatic cancer cells (CellTiter-Glo), BXPC-3; type: cell-based; details: 100 μg/mL, 48 hrs
Protocol: (§1) EA and EA-metabolites (gallic and gallagic acids, urolithin B and methylated-urolithin A) were evaluated for antiproliferative activity against the human pancreatic cancer cell lines ASPC-1 and BXPC-3. The cells were grown to a concentration of 10,000 cells per well; and were then resuspended in medium containing the vehicle control or the indicated compound: Ellagic acid, urolithin A, methyl urolithin A, or urolithin B, at a concentration of 100 μg/mL. The cells were incubated for 48 hrs, and the viability assayed byCellTiter-Glo® Luminescent Cell Viability Assay (Technical Bulletin #288, Promega Corp., Madison, Wis.).

[2] = test system: LNCaP-AR prostate cancer cell line; experiment: Antiproliferative cell assay (CellTiter-Glo), LNCaP-AR; type: cell-based, human; details: 48 h exposure, read-out: IC50 against prostate cancer cell line LNCap-AR
Protocol: (§2) Cell Culture Materials. The 22Rv1, DU145, LNCaP and PC3 prostate cancer cell lines were obtained from American Type Culture Collection (ATCC, Rockville, Md.). The LNCaP-AR and Hi-Myc cell lines were a kind donation by Dr. C. Sawyers (David Geffen School of Medicine, UCLA, Los Angeles, Calif.). DU145, 22Rv1, LNCaP, LNCaP-AR, and PC3 cells were grown in RPMI 1640; Hi-Myc cells were grown in Isecove's Modified Dulbecco's Medium. All media contained 10% fetal bovine serum (FBS) in the presence of 100 U/mL penicillin and 0.1 g/L streptomycin. RWPE-1 prostate cells were grown in Defined Keratinocyte Serum Free Medium (DKSFM) containing epidermal growth factor (EGF), insulin and fibroblast growth factor (FGF). Cells were incubated at 37° C. with 95% air and 5% CO2. All cells were maintained below passage 20 and used in experiments during the linear phase of growth.
(§3) Proliferation was measured utilizing the CellTiter-Glo® Luminescent Cell Viability Assay (Technical Bulletin #288, Promega Corp., Madison, Wis.). When added to cells, the assay reagent produces luminescence in the presence of ATP from viable cells. Cells were plated in 96-well plates at a density of 10,000 cells/well and incubated for 24 hours. Test samples were solubilized in DMSO by sonication, filter sterilized and diluted with media to the desired treatment concentration. Cells were treated with 100 μLcontrol media, vehicle control (DMSO<0.2% of total) or test samples and incubated for 48 h drug exposure duration at 6.25, 12.5, 25, 50 and 100 μg/mL concentrations. At the end of 48 h, plates were equilibrated at room temperature for 30 min; 100 μL of the assay reagent was added to each well and cell-lysis was induced on an orbital shaker for 2 min. Plates were incubated at room temperature for 10 min to stabilize the luminescence signal and results were read on an Orion Microplate Luminometer (Bertholds Detection Systems, Pforzheim, Germany). All plates had control wells containing medium without cells to obtain a value for background luminescence. Data are expressed as percentage of untreated cells (i.e. treatment value-blank/vehicle value-blank), mean±SE for three replications.

[3] = test system: human pancreatic cancer cell line ASPC-1; experiment: Antiproliferative activity against pancreatic cancer cells (CellTiter-Glo), ASPC-1; type: cell-based; details: 100 μg/mL, 48 hrs
Protocol: as §1

[4] = test system: 22Rv1 prostate cancer cell line; experiment: Antiproliferative cell assay (CellTiter-Glo), 22Rv1; type: cell-based, human; details: 48 h exposure, read-out: IC50 against prostate cancer cell line 22 Rv1
Protocol: as §2, §3

[5] = test system: Hi-Myc prostate cancer cell line; experiment: Antiproliferative cell assay (CellTiter-Glo), Hi-Myc; type: cell-based; details: Hi-Myc (mouse), 48 h exposure, read-out: IC50 against prostate cancer cell line HiMyc
Protocol: as §2, §3

[6] = test system: DU145 prostate cancer cell line; experiment: Antiproliferative cell assay (CellTiter-Glo), DU145; type: cell-based, human; details: read-out: IC50 against prostate cancer cell line DU145
Protocol: as §2, §3

[7] = test system: LNCaP prostate cancer cell line; experiment: Antiproliferative cell assay (CellTiter-Glo), LNCaP; type: cell-based, human; details: 48 h exposure, read-out: IC50 against prostate cancer cell line LNCaP
Protocol: as §2, §3

[8] = test system: PC3 prostate cancer cell line; experiment: Antiproliferative cell assay (CellTiter-Glo), PC3; type: cell-based, human; details: 48 h exposure, read-out: IC50 against prostate cancer cell line PC3
Protocol: as §2, §3

[9] = test system: human colon cancer cell line HCT-116; experiment: Antiproliferative activity against colon cancer cells (CellTiter-Glo); type: cell-based; details: 100 μg/mL, 48 hrs
Protocol: as §1, with “colon” for “pancreatic”, “line HCT-116.” for “lines ASPC-1 and BXPC-3.”, “well in a 96 well format;” for “well;”, “containing” for “containing the”, “by the CellTiter-Glo®” for “byCellTiter-Glo®”

[10] = test system: DU145 cells; experiment: In vitro proliferation (tritiated thymidine uptake), DU145; type: cell-based; details: read-out: IC50 on growth of human prostate cancer cells
Text: (§4) DU145 and LNCaP cells (ATCC, Rockville, Md.), 22Rv1 cells (gift from Pinchas Cohen), and LNCAP-AR cells (gift from Charles Sawyers) were maintained below passage 20 and used in experiments during the linear phase of growth as previously described (Seeram et al. J Nutr Biochem. 16 (2005), p. 360). EA was purchased from Sigma-Aldrich (St. Louis, Mo.). UA (3,8-dihydroxy-6H-benzo[b,d]chromen-6-one), methylated UA and dimethylated UA were synthesized in our laboratory as previously described (Ghosal et al. J Chem Res Synop. 11 (1989), p. 350). Compounds were dissolved in dimethylsulfoxide (DMSO) then added to media to achieve the final desired test concentration with a final DMSO concentration not exceeding 0.1%. Proliferation was determined by tritiated thymidine uptake as previously described. All assays were performed in triplicate.
(§5) For the cell proliferation assays, data are expressed as a percentage of untreated cells (i.e. treatment value-blank/vehicle value-blank), mean±SE for at least three separate experiments. Data were analyzed by either student's t-test or one-way ANOVA followed by Dunnett's Multiple Range test (α=0.05) with Graph Pad Prism 3.0 (Graph Pad Software Inc.) as appropriate.

[11] = test system: LNCaP-AR cells; experiment: In vitro proliferation (tritiated thymidine uptake), LNCaP-AR; type: cell-based; details: mean ± SE, read-out: IC50 on growth of human prostate cancer cells
Text: as §4, §5

[12] = test system: 22Rv1 cells; experiment: In vitro proliferation (tritiated thymidine uptake), 22RV1; type: cell-based; details: mean ± SE, read-out: IC50 on growth of human prostate cancer cells
Text: as §4, §5

[13] = test system: LNCaP cells; experiment: In vitro proliferation (tritiated thymidine uptake), LNCaP; type: cell-based; details: mean ± SE, read-out: IC50 on growth of human prostate cancer cells
Text: as §4, §5

[14] = Tissue disposition study after UA administration; type: in vivo, C57/B6 mice; details: for UA and UA-conjugate levels in plasma at 24 h / UA and UA-conjugate levels in tissues at 24 h: below detectable limit
Protocol: Pomegranate extract (PE) derived from the skin of pomegranate fruit (Punica granatum L., Paramount Farms, Lost Hills, Calif.) was standardized to 37% ETs (as punicalagins) and 3.5% free EA as reported (Seeram et al. Sep Purific Tech. 41 (2005), p. 49). PE was administered to animals in doses based on the amount of ETs in a single serving of pomegranate juice (240 ml of single strength juice, 80 mg of ETs). The equivalent dose that would be administered to a 70 kg human was calculated for a mouse of 25 g body weight to be 0.03 mg ETs. Ten times (10×) this dose was used in the animal studies (0.8 mg PE per dose per animal) to enhance our ability to detect phytochemical distribution. For studies administering UA, doses were calculated assuming complete conversion of ETs to UA. […] Both PE and UA were suspended in 50 μL PBS or 10% aqueous glucose solution for intraperitoneal or oral administration, respectively.
Male C57/B6 mice (n=156 mice, retired breeders, 7 months old, 25-30 g) from Charles River laboratories (Wilmington, Mass.) were fed AlN 93G diets and water ad libitum, and fasted 6 h prior to dosing. Mice were dosed orally or intraperitoneally with either PE (0.8 mg/mouse/dose; n=72), UA (0.3 mg/mouse/dose; n=72) or vehicle control (50 μL; n=12 mice). Blood samples were collected at 0.5, 1, 2, 4, 6 and 24 h after dosing and prostate, liver, kidney, lung, colon, intestine and brain tissues were collected and stored at −80° C. Harvested tissue (200 mg) was homogenized in methanol with 0.1% acetic acid (1 mL) and centrifuged at 3000×g for 10 min. The supernatant was dried on a SpeedVac then reconstituted with 200 μL of the HPLC mobile phase for a final injection volume of 20 μL. Xenograft tissue homogenates required acid hydrolysis prior to chromatography as reported (Gu et al. J Agric Food Chem. 53 (2005), p. 6858). HPLC-UV and HPLC-MS/MS analyses were carried out on a Waters Alliance 2690 system (Waters Corp., Milford, Mass.) an LCQ Classic Finnigan system (ThermoFinnigan, San Jose, Calif.), respectively, as previously described (Seeram et al. Clin Chim Acta. 348 (2004), p. 63). Linear calibration curves were constructed using a spiked internal standard method with EA or UA using plasma or liver tissues collected from control mice as described previously (Seeram et al. Clin Chim Acta. 348 (2004), p. 63). Accuracy values ranged from 91-108% for the quality control samples containing the EA or UA standard.

[15] = Homo sapiens, DU-145, 48 h exposure
[16] = UA 0.3 mg/mouse/dose intraperitoneal

SMILES	IC50 ([2]; Homo sapiens) [µM]	IC50 ([4]; Homo sapiens, 22Rv1, 48 h) [µM]	IC50 [5] [µM]	IC50 [6, 15] [µM]	IC50 ([7]; Homo sapiens) [µM]	IC50 ([8]; Homo sapiens) [µM]	IC50 [4] [µM]	IC50 ([10]; mean ± SE) [µM]	IC50 [12] [µM]	IC50 [13] [µM]	anti-proliferative activity, rank order [1]	anti-proliferative activity, rank order [3]	anti-proliferative activity, rank order [9]	further results
COc1ccc2c(c1)c(=O)oc1cc(O)ccc12 [8-methyl-Urolithin A, 3-hydroxy-8-methoxyl-6H-dibenzo[b,d]pyran-6-one]	151	127	586	466	206	526	–	–	–	–	urolithin A is the most active, then ellagic acid, urolithin B and methyl urolithin A	urolithin A is the most active, then ellagic acid, urolithin B and methyl urolithin A	urolithin A is the most active, then ellagic acid, urolithin B and methyl urolithin A	–
O=c1oc2c(O)c(O)cc3c(=O)oc4c(O)c(O)cc1c4c23 [Ellagic acid, reference compound]	82.6	41.7	1.7	96	20.5	83.6	–	–	–	–	urolithin A is the most active, then ellagic acid, urolithin B and methyl urolithin A	urolithin A is the most active, then ellagic acid, urolithin B and methyl urolithin A	urolithin A is the most active, then ellagic acid, urolithin B and methyl urolithin A	IC50 ([10]; Homo sapiens, DU-145, mean ± SE): 74.3 ± 5.2 µM; IC50 ([11]; Homo sapiens): 78.7 ± 3.2 µM; IC50 ([12]; Homo sapiens): 109 ± 16.6 µM; IC50 ([13]; Homo sapiens): 62.4 ± 4.2 µM
COc1ccc2c(c1)oc(=O)c1cc(OC)ccc12 [dmUA]	–	–	–	–	–	–	–	70.7 ± 13	85 ± 8.6	71.4 ± 13.5	–	–	–	–
O=C(O)c1cc(O)c(O)c(O)c1-c1c(O)c(O)c2oc(=O)c3c(-c4c(C(=O)O)cc(O)c(O)c4O)c(O)c(O)c4oc(=O)c1c2c43 [Gallagic acid]	–	–	82.7	–	–	–	166	–	–	–	–	–	–	IC50 [2]: 82.4 µM; IC50 ([6]; 48 h exposure): 198 µM; IC50 [7]: 71.4 µM; IC50 [8]: 83.6 µM

Second part, led by results:

IC50 ([2]; Homo sapiens) [µM]	IC50 ([4]; Homo sapiens, 22Rv1, 48 h) [µM]	IC50 [5] [µM]	IC50 [6, 15] [µM]	IC50 ([7]; Homo sapiens) [µM]	IC50 ([8]; Homo sapiens) [µM]	IC50 [4] [µM]	IC50 ([10]; mean ± SE) [µM]	IC50 [12] [µM]	IC50 [13] [µM]	SMILES	anti-proliferative activity, rank order [1]	anti-proliferative activity, rank order [3]	anti-proliferative activity, rank order [9]	further results
29.2	18.6	73.5	29.4	32.3	111	18.5	–	–	–	O=C(O)c1cc(O)c(O)c(O)c1 [Gallic acid]	–	–	–	–
–	–	–	–	–	–	–	49.8 ± 3.9	47.8 ± 3.2	31.3 ± 0.5	O=c1oc2cc(O)ccc2c2ccc(O)cc12 [UA, 3,8-dihydroxy-6H-benzo[b,d]chromen-6-one]	most active	most active	most active	IC50 [11]: 43.3 ± 2.8 µM; UA and UA-conjugate levels in plasma at 24 h [14, 16]: < 3 ng/mL; UA and UA-conjugate levels in tissues at 24 h [14, 16]: < 5 ng/g; UA and UA-conjugate levels in plasma at 24 h ([14]; UA 0.3 mg/mouse/dose oral): < 3 ng/mL; UA and UA-conjugate levels in tissues at 24 h ([14]; UA 0.3 mg/mouse/dose oral): < 5 ng/g; time of peak concentration in prostate, colon and intestine ([14]; UA intraperitoneally): 2 h; tissue uptake ([14]; UA orally, prostate followed by small intestine and colon): highest concentrations in the prostate gland
